# Source: patent US10934527B2, “Generation of lineage-restricted progenitor cells from differentiated cells” (The Regents of the University of California, priority 2011, dated 2021)
# “Also recorded” adds a separate entry of the source.
# Key:
# primary myotubes = assay: Apoptosis / cell death in treated primary myotubes; assay type: cell-based, mice
# YFP+ myotubes = assay: De-differentiation assay of lineage-marked YFP+ primary myotubes; assay type: cell-based, mice
# Protocol: WT myoblasts or Tet-Oct4 (3×10^5) myoblasts upon 4-6 hour infection with 300 MOI of Ad-Cre virus were washed with growth medium twice to get rid of any residual virus and incubated for another 24 hours in growth medium at 37° C. in 5% CO2 incubator. These myoblasts were then lifted off from the plates by addition of 1×PBS, counted (3×10^4 cells/well) and co-cultured with 7×10^4 Lox-YFP myoblasts (obtained from B6.129X1-Gt(ROSA)26Sor^tm1(EYFP)Cos/J mice strain) per well in differentiation inducing medium DMEM (Cellgro)+2% horse serum+1% Penicillin/Streptomycin on 12 well (BD Falcon) on ECM (1:500) coated 12 well plates. […] The inhibitors were then withdrawn and cells were switched to growth medium containing bFGF (9 ng/ml). The treated cells were fed fresh growth medium and bFGF everyday over a period of time and the morphology of YFP expressing myotubes was routinely visualized by epifluorescence microscope using YFP filter and photographed using 10× and 20× objectives. For live Hoechst staining, 4 μM of Hoechst was added everyday to YFP labeled myotube cultures, incubated for 10 minutes at 37° C. in 5% CO2 incubator, washed off to remove unlabeled Hoechst and photographed.
# The labeled YFP^+ myotubes per well in 4 day old Cre-Lox myotube cultures were determined to be ˜2600. After inhibitor treatment, ˜350 YFP^+ mononucleated cells were found in culture. […] Another method was based on the determination of Lox YFP myonuclei in labeled myotubes. […] Therefore, reprogramming efficiency calculated was the percent of YFP^+ mononucleated cells out of an estimated total number of Lox YFP myonuclei in YFP^+ myotubes and was determined ˜5.04% [(350/6940)×100] (see FIG. 11D).
# [1] = 96 hour old YFP+ myotubes treated daily for 2 days in DM (10 μM), then switched to GM
compound,measurement,setting,value
"O.O.O.OO.OO.[K+].[OH-].[V].c1cnc2c(c1)ccc1cccnc12 [BpV, potassium bisperoxo(1,10-phenanthroline)oxovanadate]",cell death / apoptosis of myotubes,primary myotubes; myotubes treated with BpV alone,cell death occurred; also recorded: did show apoptosis
same,"de-differentiation frequency / reprogramming efficiency, method 1: percent of YFP+ mononucleated cells out of the total number of labeled YFP+ myotubes",YFP+ myotubes; [1],~1.18%
same,"reprogramming efficiency, method 2: percent of YFP+ mononucleated cells out of estimated total number of Lox YFP myonuclei in YFP+ myotubes",YFP+ myotubes; [1],~0.4%
COc1cccc2c1C(=O)c1c(O)c3c(c(O)c1C2=O)C[C@@](O)(C(=O)CO)C[C@@H]3O[C@H]1C[C@H](N)[C@H](O)[C@H](C)O1 [doxorubicin],appearance of YFP+ mononucleated cells from Cre-Lox myotubes,"YFP+ myotubes; 0.2 uM for 48 hours, alone or in combination with the apoptosis inhibitor, then growth media 72-96 hours",no YFP^+ mononucleated cells were observed
"N-(2-Quinolyl)valyl-aspartyl-(2,6-difluorophenoxy)methyl ketone [Q-VD]",apoptosis by doxorubicin in Cre-Lox myotube cultures,primary myotubes; with 0.2 uM doxorubicin for 48 hours,reduced apoptosis
same,appearance of YFP+ mononucleated cells from YFP+ myotubes,"YFP+ myotubes; treated in DM, then switched to GM",no YFP^+ mononucleated cells were observed
